Source: US20110021477A1, “COMBINATIONS COMPRISING […] AGENTS AND CORTICOSTERIODS” (priority 2004, published 2011)

Test system: ovoalbumin-sensitized guinea-pig isolated tracheal rings
Test: Inhibition of antigen (ovoalbumin)-induced contraction in ovoalbumin-sensitized guinea-pig isolated tracheal rings (organ bath)
Experimental: Male Dunkin-Hartley guinea-pigs (weighing 380-420 g) from Harlan Ibérica (St. Feliu de Codines, Spain) are used. They are housed, with free access to food and water, in rooms kept at 22±2° C. under a 12 hours light-dark cycle until the start of the experiment.
The animals are sensitised by means of two sessions of aerosolization with a solution of 5 mg/ml of ovoalbumin on days zero and 7 of the study. The aerosolization procedure consists of two 30-s nebulisations (Efbe air brush apparatus) with an interval of 5 minutes with animals maintained in a plexiglass box for 10 minutes since the beginning of the procedure.
Between days 14 to 20 from the beginning of the experiment the animals are euthanised and the tracheal tissue is removed. A single tracheal ring is excised and suspended in an organ bath containing Krebs solution. Once attached to a force isometric transducer, it is submitted to a basal resting tension of 1 g, equilibrated with a mixture a 5% CO2 in O2 and maintained at 37° C.
The preparations are allowed to equilibrate for a period of not less than 60 minutes and then the vehicle or the compound(s) to be tested are added to the bath. […] At this moment ovoalbumin is added (at a final concentration in the bath of 10 μg/ml) to elicit the contractile response which is measured immediately.
The contractile responses measured with a force isometric transducer are expressed in mg.

C[C@H]1C[C@H]2[C@@H]3CCC4=CC(=O)C=C[C@]4(C)[C@@]3(Cl)[C@@H](O)C[C@]2(C)[C@@]1(O)C(=O)CO [BECLOMETHASONE, beclomethasone]
% INHIBITION OF THE CONTRACTILE RESPONSE (each compound 10 μM in bath, ovoalbumin 10 μg/ml, relative to vehicle): 12%
inhibition of the contractile response to antigen, comparison in words (ovoalbumin-sensitized guinea-pig tracheal rings, summary of Table 1 and FIG. 1): smaller effect
